Source: patent publication US11390604B2 (Hoffmann-La Roche Inc., priority 2019, dated 2022)
Structures can show the parent of a compound that is named as a salt.

test system: Acinetobacter baumannii ATCC 17961; test: Antimicrobial susceptibility testing: 90% growth inhibitory concentration (IC90) determination; format: cell-based; settings: ATCC17961, Acinetobacter baumannii ATCC 17961, Iso-Sensitest broth, read-out: ATCC 17961 IC90
Method in brief: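 Growth was followed kinetically by OD600 at 20-min intervals for 16 h at 35±2 °C, with ~5×10^5 CFU/ml in Iso-Sensitest broth. Compounds were tested as twofold dilutions (e.g. 50–0.097 μM final). The concentration giving 90% inhibition of log-phase growth was reported.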

| IC90 [µM] | Structure (SMILES) |
| --- | --- |
| 0.403 | Cn1c(-c2cn(C3CC3)nc2C(F)(F)F)cnc1C(=O)Nc1ccc(C(=O)N2CCN(C(=O)NCC3(O)CCNCC3)CC2)c(Cl)c1 [Example 320, 4-(2-chloro-4-(5-(1-cyclopropyl-3-(trifluoromethyl)-1H-pyrazol-4-yl)-1-methyl-1H-imidazole-2-carboxamido)benzoyl)-N-((4-hydroxypiperidin-4-yl)methyl)piperazine-1-carboxamide formate] |
| 0.403 | Cn1c(-c2cn(C3CC3)nc2C(F)(F)F)cnc1C(=O)Nc1ccc(C(=O)N2CCN(C(=O)[C@@H]3C[C@@H](O)CN3)CC2)c(Cl)c1 [Example 321, N-(3-chloro-4-(4-((2S,4R)-4-hydroxypyrrolidine-2-carbonyl)piperazine-1-carbonyl)phenyl)-5-(1-cyclopropyl-3-(trifluoromethyl)-1H-pyrazol-4-yl)-1-methyl-1H-imidazole-2-carboxamide hydrochloride] |
| 0.407 | Cn1c(-c2cn(C3CC3)nc2C(F)(F)F)cnc1C(=O)Nc1ccc(C(=O)N[C@H]2[C@@H]3CN(C(=O)N4CC[C@@H](N)C4)C[C@@H]32)c(Cl)c1 [Example 322, N-(4-((exo-3-((R)-3-aminopyrrolidine-1-carbonyl)-3-azabicyclo[3.1.0]hexan-6-yl)carbamoyl)-3-chlorophenyl)-5-(1-cyclopropyl-3-(trifluoromethyl)-1H-pyrazol-4-yl)-1-methyl-1H-imidazole-2-carboxamide formate] |
| 0.407 | Cn1c(-c2cn(C3CC3)nc2C(F)(F)F)cnc1C(=O)Nc1ccc(C(=O)N2CCC(C3CCNCC3)CC2)c(Cl)c1 [Example 323, N-(4-([4,4′-bipiperidine]-1-carbonyl)-3-chlorophenyl)-5-(1-cyclopropyl-3-(trifluoromethyl)-1H-pyrazol-4-yl)-1-methyl-1H-imidazole-2-carboxamide formate] |
| 0.408 | C[C@H](N)C(=O)N[C@H]1CC[C@@H](NC(=O)c2ccc(NC(=O)c3ncc(-c4cn(CC#N)nc4C(F)(F)F)n3C)cc2Cl)CC1 [Example 324, N-[4-[[4-[[(2S)-2-aminopropanoyl]amino]cyclo-hexyl]carbamoyl]-3-chlorophenyl]-5-[1-(cyanomethyl)-3-(trifluoromethyl)pyrazol-4-yl]-1-methylimidazole-2-carboxamide;2,2,2-trifluoroacetic acid] |
| 0.411 | CCn1cc(-c2cnc(C(=O)Nc3ccc(C(=O)N4CCN(C(=O)N[C@H]5C[C@@H](N)C5)CC4)c(Br)c3)n2C)c(C(F)(F)F)n1 [Example 325, rac-N-((is,3s)-3-aminocyclobutyl)-4-(2-bromo-4-(5-(1-ethyl-3-(trifluoromethyl)-1H-pyrazol-4-yl)-1-methyl-1H-imidazole-2-carboxamido)benzoyl)piperazine-1-carboxamidee formate] |
| 0.411 | Cn1c(-c2cn(CC#N)nc2C(F)(F)F)cnc1C(=O)Nc1ccc(C(=O)N[C@H]2C[C@@H](NC(=O)N3CCCC(N)C3)C2)c(Cl)c1 (stereo partly shown) [Example 326, 3-amino-N-[3-[[2-chloro-4-[[5-[1-(cyanomethyl)-3-(trifluoromethyl)pyrazol-4-yl]-1-methyl-imidazole-2-carbonyl]amino]benzoyl]amino]cyclobutyl]piperidine-1-carboxamide; formic acid] |
| 0.414 | Cn1c(-c2cn(CC3CCC3)nc2C(F)(F)F)cnc1C(=O)Nc1ccc(C(=O)N2CCN(C(=O)[C@H]3CC[C@@H](N)C3)CC2)c(Cl)c1 [Example 327, N-(4-(4-((1S,3R)-3-aminocyclopentane-1-carbonyl)piperazine-1-carbonyl)-3-chlorophenyl)-5-(1-(cyclobutylmethyl)-3-(trifluoromethyl)-1H-pyrazol-4-yl)-1-methyl-1H-imidazole-2-carboxamide hydrochloride] |
| 0.42 | Cn1c(-c2cn(CC#N)nc2C(F)(F)F)cnc1C(=O)Nc1ccc(C(=O)N[C@H]2C[C@@H](NC(=O)N3CC4CC3CN4)C2)c(Cl)c1 (stereo partly shown) [Example 328, N-[3-[[2-chloro-4-[[5-[1-(cyanomethyl)-3-(trifluoromethyl)pyrazol-4-yl]-1-methyl-imidazole-2-carbonyl]amino]benzoyl]amino]cyclobutyl]-2,5-diazabicyclo[2.2.1]heptane-2-carboxamide; formic acid] |

The remaining lines, values behind:

| Structure (SMILES) | IC90 [µM] |
| --- | --- |
| Cn1c(-c2cn(C3CC3)nc2C(F)(F)F)cnc1C(=O)Nc1ccc(C(=O)N[C@H]2[C@@H]3CN(C(=O)C4CCNCC4)C[C@@H]32)c(Cl)c1 [Example 306, N-(3-chloro-4-((exo-3-(piperidine-4-carbonyl)-3-azabicyclo[3.1.0]hexan-6-yl)carbamoyl)phenyl)-5-(1-cyclopropyl-3-(trifluoromethyl)-1H-pyrazol-4-yl)-1-methyl-1H-imidazole-2-carboxamide] | 0.374 |
| Cn1c(-c2cn(CC=C(F)F)nc2C(F)(F)F)cnc1C(=O)Nc1ccc(C(=O)N[C@H]2C[C@@H](N)C2)c(Cl)c1 [Example 307, rac-N-(4-(((1s,3s)-3-aminocyclobutyl)carbamoyl)-3-chlorophenyl)-5-(1-(3,3-difluoroallyl)-3-(trifluoromethyl)-1H-pyrazol-4-yl)-1-methyl-1H-imidazole-2-carboxamide 2,2,2-trifluoroacetate] | 0.375 |
| CSc1ccc(NC(=O)c2ncc(-c3cn(CC(F)F)nc3C(F)(F)F)n2C)cc1C [Example 308, 5-[1-(2,2-difluoroethyl)-3-(trifluoromethyl)pyrazol-4-yl]-1-methyl-N-(3-methyl-4-methylsulfanyl-phenyl)imidazole-2-carboxamide] | 0.377 |
| Cn1c(-c2cn(C3CC3)nc2C(F)(F)F)cnc1C(=O)Nc1ccc(C(=O)N2CCN(C(=O)CC3CCNCC3)CC2)c(Cl)c1 [Example 309, N-(3-chloro-4-(4-(2-(piperidin-4-yl)acetyl)piperazine-1-carbonyl)phenyl)-5-(1-cyclopropyl-3-(trifluoromethyl)-1H-pyrazol-4-yl)-1-methyl-1H-imidazole-2-carboxamide hydrochloride] | 0.378 |
| Cn1c(-c2cn(C3CC3)nc2C(F)(F)F)cnc1C(=O)Nc1ccc(C(=O)N2CCN(C(=O)C3CNCCC3O)CC2)c(Cl)c1 (stereo not shown) [Example 311, N-[3-chloro-4-[4-(4-hydroxypiperidine-3-carbonyl)piperazine-1-carbonyl]phenyl]-5-[1-cyclopropyl-3-(trifluoromethyl)pyrazol-4-yl]-1-methylimidazole-2-carboxamide;hydrochloride] | 0.382 |
| C/C=C/Cn1cc(-c2cnc(C(=O)Nc3ccc(C(=O)N4CCN(C(=O)C5CCNCC5)CC4)c(Cl)c3)n2C)c(C(F)(F)F)n1 [Example 312, (E)-5-(1-(but-2-en-1-yl)-3-(trifluoromethyl)-1H-pyrazol-4-yl)-N-(3-chloro-4-(4-(piperidine-4-carbonyl)piperazine-1-carbonyl)phenyl)-1-methyl-1H-imidazole-2-carboxamide hydrochloride] | 0.385 |
| Cn1c(-c2cn(C3CC3)nc2C(F)(F)F)cnc1C(=O)Nc1ccc(C(=O)N2CCN(C(=O)[C@H]3C[C@H](O)CN3)CC2)c(Cl)c1 [Example 313, N-(3-chloro-4-(4-((2R,4S)-4-hydroxypyrrolidine-2-carbonyl)piperazine-1-carbonyl)phenyl)-5-(1-cyclopropyl-3-(trifluoromethyl)-1H-pyrazol-4-yl)-1-methyl-1H-imidazole-2-carboxamide hydrochloride] | 0.386 |
| Cn1c(-c2cn(C3CC3(F)F)nc2C(F)(F)F)cnc1C(=O)Nc1ccc(C(=O)NCCCCNC(=O)OC(C)(C)C)c(Cl)c1 (stereo not shown) [Example 314, tert-butyl (4-(2-chloro-4-(5-(1-(2,2-difluorocyclopropyl)-3-(trifluoromethyl)-1H-pyrazol-4-yl)-1-methyl-1H-imidazole-2-carboxamido)benzamido)butyl) carbamate] | 0.388 |
| Cn1c(-c2cn(CC#N)nc2C(F)(F)F)cnc1C(=O)Nc1ccc(C(=O)N[C@H]2C[C@H](NC(=O)[C@@H]3CCNC3)C2)c(Cl)c1 [Example 315, N-[3-chloro-4-[[3-[[(3R)-pyrrolidine-3-carbonyl]amino]cyclobutyl]car-bamoyl]phenyl]-5-[1-(cyanomethyl)-3-(trifluoromethyl)pyrazol-4-yl]-1-methylimidazole-2-carboxamide;formic acid] | 0.39 |
| Cn1c(-c2cn(CC#N)nc2C(F)(F)F)cnc1C(=O)Nc1ccc(C(=O)N[C@H]2C[C@@H](NC(=O)N3CC[C@@H](N)C3)C2)c(Cl)c1 [Example 316, N-[4-[[3-[[(3R)-3-aminopyrrolidine-1-carbonyl]amino]cyclobutyl]car-bamoyl]-3-chloro-phenyl]-5-[1-(cyanomethyl)-3-(trifluoromethyl)pyrazol-4-yl]-1-methyl-imidazole-2-carboxamide; formic acid] | 0.392 |
| Cn1c(-c2cn(C3CC3)nc2C(F)(F)F)cnc1C(=O)Nc1ccc(C(=O)NC2CC3(CC(N)C3)C2)c(Cl)c1 (stereo not shown) [Example 317, N-(4-((6-aminospiro[3.3]heptan-2-yl)carbamoyl)-3-chlorophenyl)-5-(1-cyclopropyl-3-(trifluoromethyl)-1H-pyrazol-4-yl)-1-methyl-1H-imidazole-2-carboxamide hydrochloride] | 0.393 |
| Cn1c(-c2cn(C3CC3)nc2C(F)(F)F)cnc1C(=O)Nc1ccc(C(=O)N2CCN(C(=O)C3(O)CCNC3)CC2)c(Cl)c1 (stereo not shown) [Example 318, N-[3-chloro-4-[4-(3-hydroxypyrrolidine-3-carbonyl)piperazine-1-carbonyl]phenyl]-5-[1-cyclopropyl-3-(trifluoromethyl)pyrazol-4-yl]-1-methylimidazole-2-carboxamide;hydrochloride] | 0.396 |
| Cn1c(-c2cn(C3CC3(F)F)nc2C(F)(F)F)cnc1C(=O)Nc1ccc(C(=O)NC2CC3CNCC32)c(Cl)c1 (stereo not shown) [Example 319, N-(4-((3-azabicyclo[3.2.0]heptan-6-yl)carbamoyl)-3-chlorophenyl)-5-(1-(2,2-difluorocyclopropyl)-3-(trifluoromethyl)-1H-pyrazol-4-yl)-1-methyl-1H-imidazole-2-carboxamide formate] | 0.398 |
